Measured values reported in ChEMBL document CHEMBL6109111.
Active and inactive are the calls of the source. No cut-off for these calls is given here.

Tested on: Mus musculus
Experiment: Inhibition of morphine-mediated intestinal motility in male Kunming mouse assessed as propulsion function at 4 mg/kg, ip pretreated with compound for 30 mins followed by morphine addition and measured after 30 mins by charcoal gavage based Intestinal motility assay
Assay type: functional, organism-based
Settings: time 60.0 min

In the case of C=CCN1CC[C@]23c4c5ccc(O)c4O[C@H]2C(=O)CC[C@@]3(O)[C@H]1C5, the Activity is reported as “Active”.
